Source: patent publication US20230085307A1, “PYRIDAZINONE COMPOUND AND HERBICIDE” (NISSAN CHEMICAL CORPORATION, priority 2019, published 2023)

Tests used:
[1] = system: wild oat; experiment: Test Example 4: herbicidal effect by soil treatment (Table 19, symbol I); type: in vivo, wild oat (Avena fatua); conditions: amount of applied herbicide 320 g/ha
Summary of the method: (§1)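 Herbicidal effect was rated 3 weeks after treatment, using the scoring criteria of an earlier test. The compound, formulated as an emulsion and diluted in water to a set herbicide amount, had been sprayed uniformly on soil over freshly sown seeds. Growth took place in a greenhouse at 25° C. to 30° C.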

[2] = system: lambsquarters; experiment: Test Example 5: herbicidal effect by foliage application, plastic box (Table 20, symbol O); type: in vivo, lambsquarters (Chenopodium album); conditions: 320 g/ha, evaluated three weeks after application
Summary of the method: (§2)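 Foliar spray test: emulsion formulation diluted in water to a set application rate, sprayed onto 14-day-old plants raised in diluvial soil at 25° C to 30° C under glass. Both herbicidal effect and crop effect rated visually three weeks later.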

[3] = system: chickweed; experiment: Test Example 5: herbicidal effect by foliage application, plastic box (Table 20, symbol P); type: in vivo, common chickweed (Stellaria media); conditions: 320 g/ha, evaluated three weeks after application
Summary of the method: as §2

[4] = system: persian speedwell; experiment: Test Example 5: herbicidal effect by foliage application, plastic box (Table 20, symbol R); type: in vivo, Persian speedwell (Veronica persica); conditions: 320 g/ha, evaluated three weeks after application
Summary of the method: as §2

[5] = system: southern crabgrass; experiment: Test Example 5: herbicidal effect by foliage application, plastic box (Table 20, symbol F); type: in vivo, southern crabgrass (Digitaria ciliaris); conditions: 320 g/ha, evaluated three weeks after application
Summary of the method: as §2

[6] = system: wild oat; experiment: Test Example 5: herbicidal effect by foliage application, plastic box (Table 20, symbol I); type: in vivo, wild oat (Avena fatua); conditions: 320 g/ha, evaluated three weeks after application
Summary of the method: as §2

[7] = system: velvetleaf; experiment: Test Example 4: herbicidal effect by soil treatment (Table 19, symbol M); type: in vivo, velvetleaf (Abutilon theophrasti); conditions: amount of applied herbicide 320 g/ha
Summary of the method: as §1

[8] = system: green foxtail; experiment: Test Example 5: herbicidal effect by foliage application, plastic box (Table 20, symbol G); type: in vivo, green foxtail (Setaria viridis); conditions: 320 g/ha, evaluated three weeks after application
Summary of the method: as §2

[9] = system: blackgrass; experiment: Test Example 5: herbicidal effect by foliage application, plastic box (Table 20, symbol J); type: in vivo, blackgrass (Alopecurus myosuroides); conditions: 320 g/ha, evaluated three weeks after application
Summary of the method: as §2

[10] = system: chickweed; experiment: Test Example 4: herbicidal effect by soil treatment (Table 19, symbol P); type: in vivo, common chickweed (Stellaria media); conditions: amount of applied herbicide 320 g/ha
Summary of the method: as §1

[11] = system: persian speedwell; experiment: Test Example 4: herbicidal effect by soil treatment (Table 19, symbol R); type: in vivo, Persian speedwell (Veronica persica); conditions: amount of applied herbicide 320 g/ha
Summary of the method: as §1

[12] = system: redroot pigweed; experiment: Test Example 5: herbicidal effect by foliage application, plastic box (Table 20, symbol N); type: in vivo, redroot pigweed (Amaranthus retroflexus); conditions: 320 g/ha, evaluated three weeks after application
Summary of the method: as §2

[13] = system: velvetleaf; experiment: Test Example 5: herbicidal effect by foliage application, plastic box (Table 20, symbol M); type: in vivo, velvetleaf (Abutilon theophrasti); conditions: 320 g/ha, evaluated three weeks after application
Summary of the method: as §2

[14] = system: windgrass; experiment: Test Example 4: herbicidal effect by soil treatment (Table 19, symbol L); type: in vivo, windgrass (Apera spica-venti); conditions: amount of applied herbicide 320 g/ha
Summary of the method: as §1

[15] = system: blackgrass; experiment: Test Example 4: herbicidal effect by soil treatment (Table 19, symbol J); type: in vivo, blackgrass (Alopecurus myosuroides); conditions: amount of applied herbicide 320 g/ha
Summary of the method: as §1

[16] = system: windgrass; experiment: Test Example 5: herbicidal effect by foliage application, plastic box (Table 20, symbol L); type: in vivo, windgrass (Apera spica-venti); conditions: foliage application, 320 g/ha, evaluated three weeks after application
Summary of the method: as §2

[17] = system: barnyard grass; experiment: Test Example 5: herbicidal effect by foliage application, plastic box (Table 20, symbol H); type: in vivo, barnyard grass (Echinochloa crus-galli); conditions: 320 g/ha, evaluated three weeks after application
Summary of the method: as §2

[18] = system: Italian ryegrass; experiment: Test Example 4: herbicidal effect by soil treatment (Table 19, symbol K); type: in vivo, Italian ryegrass (Lolium multiflorum); conditions: amount of applied herbicide 320 g/ha
Summary of the method: as §1

[19] = system: redroot pigweed; experiment: Test Example 4: herbicidal effect by soil treatment (Table 19, symbol N); type: in vivo, redroot pigweed (Amaranthus retroflexus); conditions: amount of applied herbicide 320 g/ha
Summary of the method: as §1

[20] = system: lambsquarters; experiment: Test Example 4: herbicidal effect by soil treatment (Table 19, symbol O); type: in vivo, lambsquarters (Chenopodium album); conditions: amount of applied herbicide 320 g/ha
Summary of the method: as §1

[21] = system: green foxtail; experiment: Test Example 4: herbicidal effect by soil treatment (Table 19, symbol G); type: in vivo, green foxtail (Setaria viridis); conditions: amount of applied herbicide 320 g/ha
Summary of the method: as §1

[22] = system: southern crabgrass; experiment: Test Example 4: herbicidal effect by soil treatment (Table 19, symbol F); type: in vivo, southern crabgrass (Digitaria ciliaris); conditions: amount of applied herbicide 320 g/ha
Summary of the method: as §1

[23] = system: barnyard grass; experiment: Test Example 4: herbicidal effect by soil treatment (Table 19, symbol H); type: in vivo, barnyard grass (Echinochloa crus-galli); conditions: amount of applied herbicide 320 g/ha
Summary of the method: as §1

[24] = system: Italian ryegrass; experiment: Test Example 5: herbicidal effect by foliage application, plastic box (Table 20, symbol K); type: in vivo, Italian ryegrass (Lolium multiflorum); conditions: 320 g/ha, evaluated three weeks after application
Summary of the method: as §2

[25] = system: rice flat sedge; experiment: Test Example 3: herbicidal effect by foliage application, Wagner pot (Table 18, symbol E); type: in vivo, rice flat sedge (Cyperus iria); conditions: 320 g/ha
Summary of the method: (§3)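 Plants were sown in alluvial soil held under 0.1–0.5 cm standing water and grown 14 days in a greenhouse at 25–30 °C. An emulsifiable formulation, water-diluted to the set dose, was then sprayed onto the foliage, and effects were scored three weeks later using previously defined criteria.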

[26] = system: barnyard grass; experiment: Test Example 3: herbicidal effect by foliage application, Wagner pot (Table 18, symbol H); type: in vivo, barnyard grass (Echinochloa crus-galli); conditions: 320 g/ha
Summary of the method: as §3

[27] = system: Chinese sprangletop; experiment: Test Example 3: herbicidal effect by foliage application, Wagner pot (Table 18, symbol D); type: in vivo, chinese sprangletop (Leptochloa chinensis); conditions: 320 g/ha
Summary of the method: as §3

[28] = foliage application after 14-day growth

## COc1ccc(-c2sc3ccc(C)cc3c2-c2c(O)c(C)nn(C)c2=O)cc1 [2-140]
[1]
  I: wild oat, herbicidal effect rating: 0 (Herbicidal rate of 5% or less (almost no effect))
[2]; foliage application
  herbicidal effect on O: lambsquarters: 3 (Herbicidal rate of 40% or more and less than 70%)
[3]; foliage application
  herbicidal effect on P: chickweed: 4 (Herbicidal rate of 70% or more and less than 90%)
[4]; foliage application
  herbicidal effect on R: persian speedwell: 5 (Herbicidal rate of 90% or more (almost completely withered))
[5]; foliage application
  herbicidal effect on F: southern crabgrass: 0 (Herbicidal rate of 5% or less (almost no effect))
[6]; foliage application
  herbicidal effect on I: wild oat: 0 (Herbicidal rate of 5% or less (almost no effect))
[7]
  M: velvetleaf, herbicidal effect rating: 3 (Herbicidal rate of 40% or more and less than 70%)
[8]; foliage application
  herbicidal effect on G: green foxtail: 0 (Herbicidal rate of 5% or less (almost no effect))
[9]; foliage application
  herbicidal effect on J: blackgrass: 0 (Herbicidal rate of 5% or less (almost no effect))
[10]
  P: chickweed, herbicidal effect rating: 0 (Herbicidal rate of 5% or less (almost no effect))
[11]
  R: persian speedwell, herbicidal effect rating: 3 (Herbicidal rate of 40% or more and less than 70%)
[12]; foliage application
  herbicidal effect on N: redroot pigweed: 3 (Herbicidal rate of 40% or more and less than 70%)
[13]; foliage application
  herbicidal effect on M: velvetleaf: 4 (Herbicidal rate of 70% or more and less than 90%)
[14]
  L: windgrass, herbicidal effect rating: 0 (Herbicidal rate of 5% or less (almost no effect))
[15]
  J: blackgrass, herbicidal effect rating: 0 (Herbicidal rate of 5% or less (almost no effect))
[16]
  herbicidal effect on L: windgrass: 0 (Herbicidal rate of 5% or less (almost no effect))
[17]; foliage application
  herbicidal effect on H: barnyard grass: 0 (Herbicidal rate of 5% or less (almost no effect))
[18]
  K: Italian ryegrass, herbicidal effect rating: 0 (Herbicidal rate of 5% or less (almost no effect))
[19]
  N: redroot pigweed, herbicidal effect rating: 2 (Herbicidal rate of 20% or more and less than 40%)
[20]
  O: lambsquarters, herbicidal effect rating: 0 (Herbicidal rate of 5% or less (almost no effect))
[21]
  G: green foxtail, herbicidal effect rating: 0 (Herbicidal rate of 5% or less (almost no effect))
[22]
  F: southern crabgrass, herbicidal effect rating: 0 (Herbicidal rate of 5% or less (almost no effect))
[23]
  H: barnyard grass, herbicidal effect rating: 0 (Herbicidal rate of 5% or less (almost no effect))
[24]; foliage application
  herbicidal effect on K: Italian ryegrass: 0 (Herbicidal rate of 5% or less (almost no effect))

## Cc1nn(C)c(=O)c(-c2c(-c3ccc(Cl)cc3)sc3c(F)cccc23)c1O [4-040]
[1]
  Herbicidal effect by soil treatment, I: wild oat: 0 (Herbicidal rate of 5% or less (almost no effect))
[25]
  herbicidal effect on rice flat sedge (E): 5 (Herbicidal rate of 90% or more (almost completely withered))
[26]
  herbicidal effect on barnyard grass (H): 5 (Herbicidal rate of 90% or more (almost completely withered))
[2]; [28]
  herbicidal effect on O: lambsquarters (evaluation grade 0-5): 3 (Herbicidal rate of 40% or more and less than 70%)
[3]; [28]
  herbicidal effect on P: chickweed (evaluation grade 0-5): 5 (Herbicidal rate of 90% or more (almost completely withered))
[4]; [28]
  herbicidal effect on R: persian speedwell (evaluation grade 0-5): 5 (Herbicidal rate of 90% or more (almost completely withered))
[27]
  herbicidal effect on Chinese sprangletop (D): 4 (Herbicidal rate of 70% or more and less than 90%)
[5]; [28]
  herbicidal effect on F: southern crabgrass (evaluation grade 0-5): 0 (Herbicidal rate of 5% or less (almost no effect))
[6]; [28]
  herbicidal effect on I: wild oat (evaluation grade 0-5): 0 (Herbicidal rate of 5% or less (almost no effect))
[7]
  Herbicidal effect by soil treatment, M: velvetleaf: 0 (Herbicidal rate of 5% or less (almost no effect))
[8]; [28]
  herbicidal effect on G: green foxtail (evaluation grade 0-5): 4 (Herbicidal rate of 70% or more and less than 90%)
[9]; [28]
  herbicidal effect on J: blackgrass (evaluation grade 0-5): 3 (Herbicidal rate of 40% or more and less than 70%)
[10]
  Herbicidal effect by soil treatment, P: chickweed: 1 (Herbicidal rate of 5% or more and less than 20%)
[11]
  Herbicidal effect by soil treatment, R: persian speedwell: 4 (Herbicidal rate of 70% or more and less than 90%)
[12]; [28]
  herbicidal effect on N: redroot pigweed (evaluation grade 0-5): 5 (Herbicidal rate of 90% or more (almost completely withered))
[13]; [28]
  herbicidal effect on M: velvetleaf (evaluation grade 0-5): 4 (Herbicidal rate of 70% or more and less than 90%)
[14]
  Herbicidal effect by soil treatment, L: windgrass: 0 (Herbicidal rate of 5% or less (almost no effect))
[15]
  Herbicidal effect by soil treatment, J: blackgrass: 0 (Herbicidal rate of 5% or less (almost no effect))
[17]; [28]
  herbicidal effect on H: barnyard grass (evaluation grade 0-5): 3 (Herbicidal rate of 40% or more and less than 70%)
[18]
  Herbicidal effect by soil treatment, K: Italian ryegrass: 2 (Herbicidal rate of 20% or more and less than 40%)
[19]
  Herbicidal effect by soil treatment, N: redroot pigweed: 3 (Herbicidal rate of 40% or more and less than 70%)
[20]
  Herbicidal effect by soil treatment, O: lambsquarters: 3 (Herbicidal rate of 40% or more and less than 70%)
[21]
  Herbicidal effect by soil treatment, G: green foxtail: 0 (Herbicidal rate of 5% or less (almost no effect))
[22]
  Herbicidal effect by soil treatment, F: southern crabgrass: 0 (Herbicidal rate of 5% or less (almost no effect))
[23]
  Herbicidal effect by soil treatment, H: barnyard grass: 0 (Herbicidal rate of 5% or less (almost no effect))
[24]; [28]
  herbicidal effect on K: Italian ryegrass (evaluation grade 0-5): 4 (Herbicidal rate of 70% or more and less than 90%)
